The source made the active and inactive calls.
Legend:
[1] = viability loss in HepG2 hepatoma cells – cell-based, ATP luminescence, cherry-pick, activator set 2, cytotoxicity control, dose response (AID 1053143); type: functional
[2] = Luminescence Cell-Based Dose Confirmation HTS to Identify Inhibitors of Platelet Dense Granule Release. [Related pubchem assays: 1663 (Primary HTS), 1678 (Summary of Project)]; type: functional
[3] = target: Luciferin 4-monooxygenase (Photinus pyralis, UniProt P08659); test: inhibition of purified Photinus pyralis luciferase – biochemical, luminescence, dose response (AID 1891)
[4] = NIH3T3 cell viability loss – ATP luminescence, mouse fibroblasts, counter-screen, dose response (AID 2010); type: functional, cell-based;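 note: cells exposed to compound for about 90 hours before reading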
[5] = Trypanosoma cruzi growth suppression in host cells – NIH3T3 host cells, beta-gal luminescence, confirmation (AID 2044); type: functional, cell-based;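 note: intracellular parasites grown in NIH/3T3 mouse fibroblasts as host cells; luminescent beta-galactosidase reporter signal from transgenic T. cruzi replicating inside host cells; inhibitors lower the luminescence signal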
[6] = loss of viability in HepG2 cells – cell-based, CellTiter-Glo, cherry-picked, cytotoxicity control for Shn3 inhibitor project, dose response (AID 624134); type: functional
[7] = target: COUP transcription factor 2 (Homo sapiens, UniProt P24468); test: Luminescence-based cell-based high throughput dose response assay to identify inhibitors of COUP-TFII (NR2F2).; type: functional;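 note: HEK293 cells transiently cotransfected with COUP-TFII expression vector and reporter; luciferase reporter luminescence driven by COUP-TFII from the pX2-168 reporter plasmid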
cells [8] = type: functional, cell-based; conditions: HEK-CNG
[9] = reduction of Shn3 3'UTR-driven luciferase in osteoblasts – cell-based, Clone20 osteoblasts, firefly luciferase, cherry-picked, dose response (AID 624132); type: functional;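 note: firefly luciferase luminescence from reporter carrying the Shn3 3'UTR in osteoblasts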
HEK293 [10] = test: NOD2 signaling inhibitors in MDP-stimulated cells, cell-based, uHTS, luminescence (AID 2001); type: functional; conditions: Homo sapiens
[11] = non-specific 3'UTR reporter inhibition in Clone20-Shn3RL – cell-based, Renilla luciferase, cherry-picked, counter-screen for Shn3 inhibitor project, dose response (AID 624133); type: functional
HEK293 [12] = test: inhibition of NOD1-driven NF-kB reporter – cell-based, luminescence, uHTS, primary screen (AID 1578); type: functional; conditions: Homo sapiens
HEK293 [13] = test: cells; type: functional, cell-based; conditions: Homo sapiens
HEK293 [14] = test: cells; type: functional, cell-based; conditions: Homo sapiens; remark: listed apart in the source
Galanin receptor type 3 = target: T1, Galanin receptor type 3 (Homo sapiens, UniProt O60755); test: Fluorescence-based cell-based primary high throughput dose response assay to identify antagonists of the Galanin Receptor 3 (GalR3).; type: functional
T1 sequence (O60755 whole entry): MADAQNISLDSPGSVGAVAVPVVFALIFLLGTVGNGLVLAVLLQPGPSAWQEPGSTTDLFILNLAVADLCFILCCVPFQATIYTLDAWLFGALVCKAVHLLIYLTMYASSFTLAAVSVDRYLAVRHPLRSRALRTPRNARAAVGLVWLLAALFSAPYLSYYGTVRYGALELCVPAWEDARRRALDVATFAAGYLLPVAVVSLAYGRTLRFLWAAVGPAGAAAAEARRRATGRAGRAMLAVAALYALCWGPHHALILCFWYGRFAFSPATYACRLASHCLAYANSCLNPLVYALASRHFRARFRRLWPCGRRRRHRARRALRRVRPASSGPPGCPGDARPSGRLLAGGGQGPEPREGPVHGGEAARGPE

Kallikrein-7 = Kallikrein-7 (Homo sapiens, UniProt P49862); test: Fluorescence Intensity-based biochemical primary high throughput dose response assay to identify activators of kallikrein-7 (K7) zymogen.
cells [15] = test: cells
[16] = HGIII-sPLA2 enzyme inhibition potency – biochemical, QFRET, IC50, dose response (AID 743457);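 note: green fluorescence rise as the enzyme cleaves BODIPY PC-A2 in liposomes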

COUP transcription factor 2, sequence (P24468 whole entry): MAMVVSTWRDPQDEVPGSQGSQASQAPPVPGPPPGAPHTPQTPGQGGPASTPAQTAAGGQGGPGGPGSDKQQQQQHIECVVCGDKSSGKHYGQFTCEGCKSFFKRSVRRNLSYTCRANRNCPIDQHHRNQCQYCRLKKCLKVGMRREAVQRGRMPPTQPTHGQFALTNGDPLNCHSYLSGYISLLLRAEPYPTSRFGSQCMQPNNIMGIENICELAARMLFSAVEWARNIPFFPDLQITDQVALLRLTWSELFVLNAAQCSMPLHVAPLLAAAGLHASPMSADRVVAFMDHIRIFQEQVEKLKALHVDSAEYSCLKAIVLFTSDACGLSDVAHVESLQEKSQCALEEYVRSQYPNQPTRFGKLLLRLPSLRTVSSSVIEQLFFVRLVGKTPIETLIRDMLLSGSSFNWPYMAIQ
Kallikrein-7, sequence (P49862 whole entry): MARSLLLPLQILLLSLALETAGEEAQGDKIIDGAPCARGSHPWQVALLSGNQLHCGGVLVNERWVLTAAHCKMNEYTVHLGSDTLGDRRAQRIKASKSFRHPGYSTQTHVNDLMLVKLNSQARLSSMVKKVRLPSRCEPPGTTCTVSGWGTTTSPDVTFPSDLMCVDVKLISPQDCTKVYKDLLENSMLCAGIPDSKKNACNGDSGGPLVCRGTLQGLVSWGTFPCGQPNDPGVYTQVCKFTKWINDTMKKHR
Luciferin 4-monooxygenase, sequence (P08659 whole entry): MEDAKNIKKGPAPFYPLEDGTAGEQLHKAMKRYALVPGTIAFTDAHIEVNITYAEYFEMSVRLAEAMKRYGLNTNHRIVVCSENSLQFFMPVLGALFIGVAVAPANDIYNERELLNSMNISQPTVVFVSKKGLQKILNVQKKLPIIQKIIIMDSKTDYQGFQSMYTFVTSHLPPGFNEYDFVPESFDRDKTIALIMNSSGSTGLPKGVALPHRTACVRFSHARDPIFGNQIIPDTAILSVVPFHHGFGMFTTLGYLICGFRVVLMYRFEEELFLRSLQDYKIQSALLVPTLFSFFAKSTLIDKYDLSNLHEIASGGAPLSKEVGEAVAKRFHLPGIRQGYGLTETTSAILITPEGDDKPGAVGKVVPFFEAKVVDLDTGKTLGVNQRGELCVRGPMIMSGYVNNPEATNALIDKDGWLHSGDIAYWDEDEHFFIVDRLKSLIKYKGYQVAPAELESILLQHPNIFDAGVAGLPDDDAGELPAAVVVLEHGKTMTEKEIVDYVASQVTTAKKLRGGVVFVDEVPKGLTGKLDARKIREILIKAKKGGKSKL

## Cc1cc(NC(=O)c2cccc(F)c2)ncc1NC(=O)c1ccco1
[1]
  AC50: 26 µM (active)
[2]
  EC50: 7.21 µM (active)
[3]
  EC50: 7.28 µM (active)

## CC1CCC(C(C)C)C(OC(=O)COC(=O)c2cc(O)ccc2N)C1 (centres undefined)
[4]
  EC50: > 60 µM (not active)
[1]
  AC50: 26 µM (active)
[5]
  EC50: 4.92 µM (active)

## O=C(Cc1ccc(Cl)cc1Cl)Nc1ccncc1Cl
[6]
  AC50: 2.91 µM (active)
[7]
  IC50: 11.6 µM (inactive)
Cells [8]
  EC50: > 29.9 µM (inactive)
[9]
  AC50: 1.63 µM (active)
HEK293 [10]
  IC50: 6.02 µM (active)
[11]
  AC50: 3.91 µM (active)
HEK293 [12]
  EC50: 3.7 µM (active)
HEK293 [13]
  IC50: 5.77 µM (active)
HEK293 [14]
  IC50: > 20 µM (inactive)
Galanin receptor type 3
  IC50: 4.44 µM (active)

## CCCc1cc(NCCN(C)C)n2c(nc3ccccc32)c1C#N
Kallikrein-7
  EC50: > 69.5 µM (inactive)

## Sc1nc2ccccc2n2c(S)nnc12
Cells [15]
  IC50: > 138 µM (inactive)

## O=C1c2ccccc2C(=O)c2c(Nc3ccc(CCO)cc3)ccc(O)c21
[16]
  IC50: > 122 µM (inactive)

Source: ChEMBL document CHEMBL1201862, “PubChem BioAssay data set” (2004)
